US4332794A, “6"-Deoxydibekacin, 4",6"-dideoxydibekacin and 1-N-aminoacyl derivatives thereof, and the production of these new compounds” (Zaidan Hojin Biseibutsu Kagaku Kenkyu Kai, priority 1979, dated 1982)
Converted amounts (≈) assume the structure as drawn. Where two headings read alike, the source gives them in different places.

Legend:
[1] = tested on: Shigella dysenteriae JS11910; experiment: MIC, serial dilution on nutrient agar; format: cell-based; conditions: JS11910, 18 h
[2] = tested on: Klebsiella pneumoniae 22 #3038; experiment: MIC, serial dilution on nutrient agar; format: cell-based
[3] = tested on: Escherichia coli JR66/W677; experiment: MIC, serial dilution on nutrient agar; format: cell-based
[4] = tested on: Escherichia coli K-12 R 388; experiment: MIC, serial dilution on nutrient agar; format: cell-based; conditions: K12R388, 18 h
Proteus rettgeri GN466 = experiment: MIC, serial dilution on nutrient agar; format: cell-based; conditions: Providencia rettgeri
[5] = tested on: Pseudomonas aeruginosa ROS134/PU21; experiment: microbe, parasite or virus in culture; format: cell-based; conditions: ROS134/PU21, 18 h
[6] = tested on: Pseudomonas aeruginosa 99; experiment: MIC, serial dilution on nutrient agar; format: cell-based
[7] = tested on: Escherichia coli K-12 LA 290 R56; experiment: microbe, parasite or virus in culture; format: cell-based; conditions: K12LA290R56, 18 h
[8] = tested on: Bacillus subtilis NRRL B-558; experiment: MIC, serial dilution on nutrient agar; format: cell-based; conditions: NRRLB558, 37° C., 18 hours
Escherichia coli K-12 = experiment: MIC, serial dilution on nutrient agar; format: cell-based
[9] = tested on: Salmonella enteritidis 1891; experiment: MIC, serial dilution on nutrient agar; format: cell-based; conditions: Salmonella enterica
Escherichia coli W677 = experiment: MIC, serial dilution on nutrient agar; format: cell-based
Escherichia coli JR255 = experiment: microbe, parasite or virus in culture; format: cell-based; conditions: JR255, 18 h
[10] = tested on: Mycobacterium smegmatis ATCC 607; experiment: MIC, serial dilution on nutrient agar; format: cell-based; conditions: Mycolicibacterium smegmatis
[11] = tested on: Escherichia coli K-12 LA 290 R55; experiment: microbe, parasite or virus in culture; format: cell-based; conditions: K12LA290R55, 18 h
[12] = tested on: kanamycin-sensitive bacteria and various kanamycin-resistant bacteria; conditions: prior art; cited from earlier work
[13] = tested on: Escherichia coli K-12 1410 R81; experiment: MIC, serial dilution on nutrient agar; format: cell-based; conditions: K121410R81, 18 h
[14] = tested on: Corynebacterium bovis 1810; experiment: MIC, serial dilution on nutrient agar; format: cell-based
intravenous LD50 in mice = conditions: mouse, in vivo, estimated
[15] = tested on: kanamycin-sensitive and resistant bacteria; experiment: antibacterial activity compared to dibekacin; format: cell-based
Protocol: The minimum inhibitory concentrations (mcg/ml) of 6"-deoxydibekacin (abbreviated as 6"-DDKB), 4",6"-dideoxydibekacin (abbreviated as 4",6"-DDKB), 1-N-(L-4-amino-2-hydroxybutyryl)-6"-deoxydibekacin (abbreviated as AHB-6"-DDKB) and 1-N-(L-4-amino-2-hydroxybutyryl)-4",6"-dideoxydibekacin (abbreviated as AHB-4",6"-DDKB) of this invention against various microorganisms were determined according to serial dilution method on a nutrient agar medium at 37° C., the estimation being made after 18 hours incubation. For comparison purpose, the minimum inhibitory concentrations of dibekacin (abbreviated as DKB) were also determined in the same manner as stated above.

[16] = GN466, nutrient agar, 37° C., 18 hours, read-out: MIC
[17] = Pseudomonas aeruginosa, 99, 18 h
[18] = Corynebacterium bovis, 1810, 18 h
[19] = nutrient agar, 37° C., 18 hours, read-out: MIC
[20] = Pseudomonas aeruginosa, 99, nutrient agar, 37° C., 18 hours, read-out: MIC
[21] = Corynebacterium bovis, 1810, nutrient agar, 37° C., 18 hours, read-out: MIC

Row | SMILES | MIC [1] | MIC ([2]; 18 h) | MIC ([3]; JR66/W677, 18 h) | MIC [4] | MIC (Proteus rettgeri GN466; [16]) | MIC [5] | MIC [6, 17] | MIC [7] | MIC [8] | MIC ([9]; 18 h) | MIC (Escherichia coli JR255) | MIC [11] | MIC [13] | MIC [14, 18] | MIC [6, 20] | MIC (Escherichia coli K-12; K12, 18 h) | MIC (Escherichia coli W677; W677, 18 h) | MIC ([10]; ATCC607, 18 h) | LD50 (intravenous LD50 in mice) | MIC (Proteus rettgeri GN466; GN466, 18 h) | other results
1 | NC[C@@H]1CC[C@@H](N)[C@@H](O[C@H]2[C@H](O)[C@@H](O[C@H]3O[C@H](CO)[C@@H](O)[C@H](N)[C@H]3O)[C@H](N)C[C@@H]2N)O1 [DKB, 3',4'-dideoxykanamycin B, reference compound] | 3.13 µg/mL (≈ 6.93 µM) | 100 µg/mL (≈ 221 µM) | 100 µg/mL (≈ 221 µM) | 1.56 µg/mL (≈ 3.45 µM) | 1.56 µg/mL (≈ 3.45 µM) | > 100 µg/mL | 50 µg/mL (≈ 111 µM) | 25 µg/mL (≈ 55.4 µM) | < 0.2 µg/mL | 3.13 µg/mL (≈ 6.93 µM) | > 100 µg/mL | 100 µg/mL (≈ 221 µM) | 1.56 µg/mL (≈ 3.45 µM) | 50 µg/mL (≈ 111 µM) |  |  |  |  |  |  | MIC (Escherichia coli K-12; K12, nutrient agar, 37° C., 18 hours, read-out: MIC): 1.56 µg/mL (≈ 3.45 µM); MIC (Escherichia coli W677; W677, nutrient agar, 37° C., 18 hours, read-out: MIC): 1.56 µg/mL (≈ 3.45 µM); MIC ([10]; ATCC607, nutrient agar, 37° C., 18 hours, read-out: MIC): 1.56 µg/mL (≈ 3.45 µM); antibacterial activity [12]: active against the kanamycin-sensitive bacteria and also against various kanamycin-resistant bacteria
2 | C[C@H]1O[C@H](O[C@@H]2[C@@H](O)[C@H](O[C@H]3O[C@H](CN)CC[C@H]3N)[C@@H](N)C[C@H]2NC(=O)[C@@H](O)CCN)[C@H](O)[C@@H](N)[C@@H]1O [AHB-6"-DDKB, 1-N-(L-4-amino-2-hydroxybutyryl)-6"-deoxydibekacin] | 6.25 µg/mL (≈ 11.6 µM) |  |  | 0.78 µg/mL (≈ 1.45 µM) | 12.5 µg/mL (≈ 23.3 µM) | > 100 µg/mL |  | 1.56 µg/mL (≈ 2.91 µM) | < 0.2 µg/mL |  | 1.56 µg/mL (≈ 2.91 µM) | 3.13 µg/mL (≈ 5.83 µM) | 1.56 µg/mL (≈ 2.91 µM) |  | 12.5 µg/mL (≈ 23.3 µM) | 1.56 µg/mL (≈ 2.91 µM) | 1.56 µg/mL (≈ 2.91 µM) | 0.39 µg/mL (≈ 0.727 µM) | > 80 mg/kg |  | MIC [2, 19]: 3.13 µg/mL (≈ 5.83 µM); MIC ([3]; JR66/W677, nutrient agar, 37° C., 18 hours, read-out: MIC): 3.13 µg/mL (≈ 5.83 µM); MIC [9, 19]: 3.13 µg/mL (≈ 5.83 µM); MIC [14, 21]: 3.13 µg/mL (≈ 5.83 µM)
3 | C[C@@H]1C[C@H](N)[C@@H](O)[C@@H](O[C@@H]2[C@@H](O)[C@H](O[C@H]3O[C@H](CN)CC[C@H]3N)[C@@H](N)C[C@H]2NC(=O)[C@@H](O)CCN)O1 [AHB-4",6"-DDKB, 1-N-(L-4-amino-2-hydroxybutyryl)-4",6"-dideoxydibekacin] | 3.13 µg/mL (≈ 6.01 µM) | 3.13 µg/mL (≈ 6.01 µM) | 3.13 µg/mL (≈ 6.01 µM) | 0.78 µg/mL (≈ 1.5 µM) |  | > 100 µg/mL |  | 1.56 µg/mL (≈ 3 µM) | < 0.2 µg/mL | 6.25 µg/mL (≈ 12 µM) | 1.56 µg/mL (≈ 3 µM) | 1.56 µg/mL (≈ 3 µM) | 1.56 µg/mL (≈ 3 µM) | 6.25 µg/mL (≈ 12 µM) | 12.5 µg/mL (≈ 24 µM) | 1.56 µg/mL (≈ 3 µM) | 1.56 µg/mL (≈ 3 µM) | 0.39 µg/mL (≈ 0.749 µM) | > 80 mg/kg | 3.13 µg/mL (≈ 6.01 µM) | 
4 | C[C@H]1O[C@H](O[C@@H]2[C@@H](O)[C@H](O[C@H]3O[C@H](CN)CC[C@H]3N)[C@@H](N)C[C@H]2N)[C@H](O)[C@@H](N)[C@@H]1O [6"-DDKB, 6"-deoxydibekacin] | 3.13 µg/mL (≈ 7.19 µM) | 100 µg/mL (≈ 230 µM) | 100 µg/mL (≈ 230 µM) | 1.56 µg/mL (≈ 3.58 µM) |  | > 100 µg/mL |  | 25 µg/mL (≈ 57.4 µM) | < 0.2 µg/mL | 3.13 µg/mL (≈ 7.19 µM) | > 100 µg/mL | > 100 µg/mL | 1.56 µg/mL (≈ 3.58 µM) |  | 12.5 µg/mL (≈ 28.7 µM) | 1.56 µg/mL (≈ 3.58 µM) | 1.56 µg/mL (≈ 3.58 µM) | 0.78 µg/mL (≈ 1.79 µM) | > 60 mg/kg | 3.13 µg/mL (≈ 7.19 µM) | antibacterial activity compared to dibekacin (DKB) [15]: same or more active; MIC [14, 21]: 25 µg/mL (≈ 57.4 µM)
5 | C[C@@H]1C[C@H](N)[C@@H](O)[C@@H](O[C@@H]2[C@@H](O)[C@H](O[C@H]3O[C@H](CN)CC[C@H]3N)[C@@H](N)C[C@H]2N)O1 [4",6"-DDKB, 4",6"-dideoxydibekacin] | 3.13 µg/mL (≈ 7.46 µM) | 100 µg/mL (≈ 238 µM) | 100 µg/mL (≈ 238 µM) | 1.56 µg/mL (≈ 3.72 µM) |  | > 100 µg/mL | > 100 µg/mL | 50 µg/mL (≈ 119 µM) | < 0.2 µg/mL |  | 100 µg/mL (≈ 238 µM) | 100 µg/mL (≈ 238 µM) | 1.56 µg/mL (≈ 3.72 µM) | 50 µg/mL (≈ 119 µM) |  | 1.56 µg/mL (≈ 3.72 µM) | 0.78 µg/mL (≈ 1.86 µM) | 1.56 µg/mL (≈ 3.72 µM) | > 60 mg/kg | 1.56 µg/mL (≈ 3.72 µM) | antibacterial activity compared to dibekacin (DKB) [15]: same or more active; MIC [9, 19]: 6.25 µg/mL (≈ 14.9 µM)
